Here are results for 1 molecule from patent US8030283B2, “Stabilization of amrubicin hydrochloride” (Dainippon Sumitomo Pharma Co., Ltd., priority 2001, dated 2011).

This data set is described as follows: Storage stability of amrubicin hydrochloride compositions: rates of by-product generation of degradation products. The data set is classed as physicochemical. The protocol:
Various compositions of amrubicin hydrochloride composed of about 91 to about 98% by weight of amrubicin hydrochloride and about 2 to about 9% by weight of water were prepared by exposing dried amrubicin hydrochloride to air whose relative humidity was adjusted (0 to 95%).
The thus-prepared amrubicin hydrochloride compositions having water contents of about 2 to about 9% by weight were stored at 30° C. and investigated rates of by-product generation of the degradation products, i.e., the desaccharification and deamination products.
The relative humidity was adjusted by reference to “Kobunshi Jikken-gaku Koza (Polymer Experiment Course) 5, Kobunshi no Bussei (Physical Properties of Polymers), 100-107 pages (Kyoritsu Shuppan Kabushiki Kaisha)”.

Setting [1] is: according to the decrease in water content.
[2] abbreviates: according to the increase in water content.

Regarding `CC(=O)[C@]1(N)Cc2c(O)c3c(c(O)c2[C@@H](O[C@H]2C[C@H](O)[C@H](O)CO2)C1)C(=O)c1ccccc1C3=O.Cl` [amrubicin hydrochloride, (7S,9S)-9-Acetyl-9-amino-7-[(2-deoxy-β-D-erythro-pentapyranosyl)oxy]-7,8,9,10-tetrahydro-6,11-dihydroxy-5,12-nephthacenedione hydrochloride], the “by-product generation rate of the deamination product” value was “decreased” under setting [1] and “increased” under setting [2]. Further, the “by-product generation rate of the desaccharification product” value is, setting by setting: under setting [1], “increased”; under setting [2], “decreased”. Also, the “by-product generation of both desaccharification and deamination products” value (stored at 30° C. under an atmosphere at 5 to 90% relative humidity (FIG. 1)) is “can be suppressed”; the “by-product generation of both desaccharification and deamination products” value (stored at 30° C., water content in composition controlled at 3 to 8% by weight (FIG. 2)) is given as “can be suppressed”.
